pIC50: −log10 of the molar value.
Test system: 188146-221-R-J1-PDC complex spheroid viability
Experiment: Anticancer human tumor 188146-221-R-J1-PDC patient-derived colon adenocarcinoma cell line growth inhibition [POLQ]
Conditions: for pIC50: curve of first compound; for viability, T/C: stronger effect = lower value
Method in brief: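 Patient-derived tumour cells were co-cultured with HUVEC and mesenchymal stem cells as multicellular spheroids at 37 °C. They were treated with POLQ inhibitors (novobiocin, ART-558, RP6685) alone or combined with other agents. Top concentrations were at or near clinical Cmax (otherwise 10 microM; SN-38 at 1 microM), decreasing in half-log steps.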

[1] = second compound 0.0316 µM, first compound 0.0316 µM
[2] = second compound 0.0316 µM, first compound 0.1 µM
[3] = second compound 0.0316 µM, first compound 0.316 µM
[4] = second compound 0.0316 µM, first compound 1 µM
[5] = second compound 0.1 µM, first compound 0.0316 µM
[6] = second compound 0.1 µM, first compound 0.1 µM
[7] = second compound 0.1 µM, first compound 0.316 µM
[8] = second compound 0.1 µM, first compound 1 µM
[9] = second compound 0.316 µM, first compound 0.0316 µM
[10] = second compound 0.316 µM, first compound 0.1 µM
[11] = second compound 0.316 µM, first compound 0.316 µM
[12] = second compound 0.316 µM, first compound 1 µM
[13] = second compound 1 µM, first compound 0.0316 µM
[14] = second compound 1 µM, first compound 0.1 µM
[15] = second compound 1 µM, first compound 0.316 µM
[16] = second compound 1 µM, first compound 1 µM
[17] = second compound 3.16 µM, first compound 0.0316 µM
[18] = second compound 3.16 µM, first compound 0.1 µM
[19] = second compound 3.16 µM, first compound 0.316 µM
[20] = second compound 3.16 µM, first compound 1 µM
[21] = second compound 10 µM, first compound 0.0316 µM
[22] = second compound 10 µM, first compound 0.1 µM
[23] = second compound 10 µM, first compound 0.316 µM
[24] = second compound 10 µM, first compound 1 µM
[25] = second compound 0.0316 µM, first compound 3.16 µM
[26] = second compound 0.0316 µM, first compound 10 µM
[27] = second compound 0.1 µM, first compound 3.16 µM
[28] = second compound 0.1 µM, first compound 10 µM
[29] = second compound 0.316 µM, first compound 3.16 µM
[30] = second compound 0.316 µM, first compound 10 µM
[31] = second compound 1 µM, first compound 3.16 µM
[32] = second compound 1 µM, first compound 10 µM
[33] = second compound 3.16 µM, first compound 3.16 µM
[34] = second compound 3.16 µM, first compound 10 µM
[35] = second compound 10 µM, first compound 3.16 µM
[36] = second compound 10 µM, first compound 10 µM
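Also: spheroids exposed to compounds for seven days.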
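For viability, T/C in this document: 100% = DMSO vehicle control viability.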

SMILES: CCc1c2c(nc3ccc(O)cc13)-c1cc3c(c(=O)n1C2)COC(=O)[C@]3(O)CC + COC1C(OC(N)=O)C(O)C(Oc2ccc3c(O)c(NC(=O)c4ccc(O)c(CC=C(C)C)c4)c(=O)oc3c2C)OC1(C)C
- pIC50 (second compound 0.0316 µM): 7.59
- pIC50 (second compound 0.1 µM): 7.57
- pIC50 (second compound 0.316 µM): 7.62
- pIC50 (second compound 1 µM): 7.57
- pIC50 (second compound 3.16 µM): 7.68
- pIC50 (second compound 10 µM): 7.88
- viability, T/C (second compound 0.0316 µM, first compound 0.00316 µM): 96.6%
- viability, T/C (second compound 0.0316 µM, first compound 0.01 µM): 83.1%
- viability, T/C [1]: 41%
- viability, T/C [2]: 20.6%
- viability, T/C [3]: 10.8%
- viability, T/C [4]: 7.12%
- viability, T/C (second compound 0.1 µM, first compound 0.00316 µM): 95.7%
- viability, T/C (second compound 0.1 µM, first compound 0.01 µM): 88%
- viability, T/C [5]: 42.5%
- viability, T/C [6]: 16.8%
- viability, T/C [7]: 8.86%
- viability, T/C [8]: 6.83%
- viability, T/C (second compound 0.316 µM, first compound 0.00316 µM): 87.1%
- viability, T/C (second compound 0.316 µM, first compound 0.01 µM): 88.6%
- viability, T/C [9]: 38%
- viability, T/C [10]: 14.2%
- viability, T/C [11]: 9.57%
- viability, T/C [12]: 7.85%
- viability, T/C (second compound 1 µM, first compound 0.00316 µM): 93.5%
- viability, T/C (second compound 1 µM, first compound 0.01 µM): 91.2%
- viability, T/C [13]: 42.9%
- viability, T/C [14]: 16.6%
- viability, T/C [15]: 11%
- viability, T/C [16]: 7.07%
- viability, T/C (second compound 3.16 µM, first compound 0.00316 µM): 94.3%
- viability, T/C (second compound 3.16 µM, first compound 0.01 µM): 79%
- viability, T/C [17]: 34%
- viability, T/C [18]: 13.3%
- viability, T/C [19]: 10.9%
- viability, T/C [20]: 6.97%
- viability, T/C (second compound 10 µM, first compound 0.00316 µM): 95.5%
- viability, T/C (second compound 10 µM, first compound 0.01 µM): 56.7%
- viability, T/C [21]: 28.6%
- viability, T/C [22]: 14.9%
- viability, T/C [23]: 9.1%
- viability, T/C [24]: 9.35%

SMILES: O=C(Nc1ccc(O)c(NS(=O)(=O)c2ccc(F)cc2)c1)c1ccc(-c2ccccc2)cc1 + Cc1cccc(N(C)C(=O)C2C(O)CCN2c2nc(C)cc(C(F)(F)F)c2C#N)c1
- pIC50 (second compound 0.0316 µM): < 5.00
- pIC50 (second compound 0.1 µM): < 5.00
- pIC50 (second compound 0.316 µM): < 5.00
- pIC50 (second compound 1 µM): < 5.00
- pIC50 (second compound 3.16 µM): < 5.00
- pIC50 (second compound 10 µM): < 5.00
- viability, T/C [1]: 100%
- viability, T/C [2]: 103%
- viability, T/C [3]: 109%
- viability, T/C [4]: 107%
- viability, T/C [25]: 100%
- viability, T/C [26]: 50.2%
- viability, T/C [5]: 103%
- viability, T/C [6]: 92.1%
- viability, T/C [7]: 93.5%
- viability, T/C [8]: 87.8%
- viability, T/C [27]: 106%
- viability, T/C [28]: 60.6%
- viability, T/C [9]: 102%
- viability, T/C [10]: 98.1%
- viability, T/C [11]: 103%
- viability, T/C [12]: 80.2%
- viability, T/C [29]: 83.2%
- viability, T/C [30]: 75.2%
- viability, T/C [13]: 98.5%
- viability, T/C [14]: 90.9%
- viability, T/C [15]: 92.6%
- viability, T/C [16]: 86.9%
- viability, T/C [31]: 84.1%
- viability, T/C [32]: 65.2%
- viability, T/C [17]: 96%
- viability, T/C [18]: 92.3%
- viability, T/C [19]: 89.5%
- viability, T/C [20]: 99%
- viability, T/C [33]: 90.2%
- viability, T/C [34]: 52.1%
- viability, T/C [21]: 92.3%
- viability, T/C [22]: 91.3%
- viability, T/C [23]: 101%
- viability, T/C [24]: 87.3%
- viability, T/C [35]: 79.6%
- viability, T/C [36]: 51.2%

SMILES: CNCc1ccc(-c2[nH]c3cc(F)cc4c3c2CCNC4=O)cc1 + Nc1ccc(C#CCN(C(=O)Cc2ncc(C(F)(F)F)cc2C(F)(F)F)c2ccc(F)cc2)nn1
- pIC50 (second compound 0.0316 µM): < 5.00
- pIC50 (second compound 0.1 µM): < 5.00
- pIC50 (second compound 0.316 µM): < 5.00
- pIC50 (second compound 1 µM): < 5.00
- pIC50 (second compound 3.16 µM): < 5.00
- pIC50 (second compound 10 µM): < 5.00
- viability, T/C [1]: 114%
- viability, T/C [2]: 107%
- viability, T/C [3]: 109%
- viability, T/C [4]: 106%
- viability, T/C [25]: 103%
- viability, T/C [26]: 120%
- viability, T/C [5]: 111%
- viability, T/C [6]: 104%
- viability, T/C [7]: 100%
- viability, T/C [8]: 113%
- viability, T/C [27]: 108%
- viability, T/C [28]: 116%
- viability, T/C [9]: 114%
- viability, T/C [10]: 100%
- viability, T/C [11]: 85.3%
- viability, T/C [12]: 110%
- viability, T/C [29]: 123%
- viability, T/C [30]: 119%
- viability, T/C [13]: 106%
- viability, T/C [14]: 99.2%
- viability, T/C [15]: 93.5%
- viability, T/C [16]: 111%
- viability, T/C [31]: 104%
- viability, T/C [32]: 100%
- viability, T/C [17]: 102%
- viability, T/C [18]: 94.7%
- viability, T/C [19]: 99.5%
- viability, T/C [20]: 109%
- viability, T/C [33]: 110%
- viability, T/C [34]: 103%
- viability, T/C [21]: 114%
- viability, T/C [22]: 115%
- viability, T/C [23]: 112%
- viability, T/C [24]: 108%
- viability, T/C [35]: 120%
- viability, T/C [36]: 130%

Source: PubChem BioAssay AID1963851 (Molecular Pharmacology Branch, DTP, NCI, 2024)
